# In patent US7157256B2, “Method for producing para-hydroxystyrene and other multifunctional aromatic compounds using two-phase extractive fermentation” (E. I. du Pont de Nemours and Company, priority 2003, dated 2007):
# “And” between values parts separate entries of the source, which are not always exact repeats. Equal values may be shown once.
# Experiments:
# [1] = Partition of pHS between organic solvent and aqueous medium, two-phase flask fermentation; assay type: physicochemical; details: 15 h, 35° C.
# Method: Samples were analyzed for tyrosine, phenylalanine, CA, pHCA, and pHS using reverse-phase chromatography with an Agilent HP1100 HPLC system equipped with an autosampler, diode-array detector, and ChemStation for data acquisition and processing (Agilent Technologies, Inc., Wilmington, Del.). The analyses were done using a 4.6 mm×15 cm Zorbax SB-C18 column (3.5 μm particle size), obtained from Agilent Technologies, Inc., thermostated at 35° C. The samples were run using a flow rate of 1.0 mL/min with an eight-minute solvent gradient from 5% acetonitrile/water, containing 0.1% trifluoroacetic acid, to 80% acetonitrile/water, containing 0.1% trifluoroacetic acid. A diode-array detector set at 210, 260, and 280 nm was used to detect the various compounds at their optimum absorbance wavelength.
# The aqueous samples were diluted 1:3 with water, while the organic samples were diluted 1:3 with acetonitrile before injection of 50 μL of the sample into the HPLC. A standard mixture of the analytes was prepared by mixing equal portions of solutions of the individual components, each at a concentration of 1 mg/mL.
# The strain used in this study was E. coli WWQ51.1, as described in Example 3. […] The OD550, pH, glucose concentration and the pHS concentration of the aqueous phases were measured as described in Example 3. The organic phases were analyzed for pHS using HPLC, as described supra.
# [2] = Partition of pHS between 2-undecanone and aqueous medium, 10 L fermentor; assay type: physicochemical; details: 2-undecanone/aqueous
# Method: The pre-seed culture was E. coli strain WWQ51.1, as described in Example 3, frozen in glycerol. This culture was used to inoculate 500 mL of the seed medium consisting of KH2PO4 (0.15 g/L), Na2HPO4 (0.35 g/L), (NH4)2SO4 (3 g/L), MgSO4.7H2O (0.3 g/L), yeast extract (0.5 g/L), and MOPS (15.7 g/L). The medium was adjusted to pH 6.8 and steam sterilized. Then, glucose (10 g/L), kanamycin (50 mg/L) and ampicillin (100 mg/L) were aseptically added to give the final concentration given in parentheses. The seed culture was inoculated and grown in a 2 L flask incubated at 35° C. and 300 rpm for 12 h in an incubator shaker.
# The fermentor medium consisted of: 6.2 L of H2O, 1.4 g KH2PO4, 3.5 g MgSO4.7H2O, 7 g (NH4)2SO4, 7 mL of Mazu DF204 Defoamer, obtained from BASF Corp. (Mt. Olive, N.J.), 7 mg thiamine, and 3 L of 2-undecanone, obtained from Bedoukian Research, Inc. (Danbury, Conn.). After sterilization of the medium, 250 g of a 50% w/v glucose solution and 140 mL of the trace element solution (as described in Example 1), were aseptically added. The pH of the medium was adjusted to 6.5. The final total volume of the fermentation medium was 10 L.
# The seed culture was used to inoculate the fermentor medium in a 14 L Braun Fermentor, Biostat C. B. (Braun Biotech International, Melesungen, Germany). The fermentation conditions were as follows: temperature: 35° C., stir rate: 400–600 rpm, airflow: 2–16 SLPM, DO2: 25%, and pressure: 1 bar. Glucose was fed into the fermentor starting at a rate of 0.28 g/min. This rate was reduced when the glucose concentration rose above 2 g/L. IPTG (8 mL of a 0.5 M solution) was added when the glucose concentration fell below 4 g/L.
# Samples of the aqueous and organic phases were collected at various times. The glucose, pHCA, CA, phenylalanine, tyrosine, and pHS concentrations, and the OD550 in the aqueous phase were determined, as described supra. The pHS concentration in the organic phase was measured using HPLC, as described supra.
# [3] = system: P. putida strain S12 (ATCC No. 700801); test: Effect of pHS on the growth of Pseudomonas putida; assay type: cell-based; details: for Growth Rate, %: percentage of growth without pHS
# Method: This study was done using P. putida strain S12 (ATCC No. 700801), obtained from the American Type Culture Collection. This P. putida strain was grown at 30° C. in 20 mL of LB medium containing 0.25% glucose and 10 mM MgSO4 in a 125 mL baffled flask until stationary phase was achieved. Aliquots from this stationary phase culture were plated on LB agar plates containing 0.25% glucose, 10 mM MgSO4, and 1 g/L pHS, and incubated at 30° C. for several days. Colonies from these plates were streaked on identical plates and grown as described above. An individual colony from these plates was used to inoculate 20 mL of liquid LB medium containing 0.5% glucose, 10 mM MgSO4 and 1 g/L pHS. This culture was grown in a 125 mL baffled flask at 30° C. and 200 rpm in an incubator shaker until stationary phase was achieved. These stationary phase cells (0.5 mL) were added to 20 mL of a test medium consisting of LB medium, 0.5% glucose, 10 mM MgSO4 and either 0, 1.0, or 1.25 g/L pHS. These cultures were grown in 125 mL baffled flasks at 30° C. and 200 rpm in an incubator shaker. Cell growth in these cultures was monitored by taking aliquots, diluting them with an equal volume of 1,2-propanediol, and measuring the OD at 600 nm. These OD measurements were used to calculate the doubling time and growth rate as a percentage of growth observed in the test medium without pHS.
smiles,measurement,setting,value
"C=Cc1ccc(O)cc1 [pHS, para-hydroxystyrene]",pHS Partition coeff,[1]; 20 mL 2-undecanone / 50 mL test medium,20 and 23
same,pHS Partition coeff,[1]; 20 mL DBE / 50 mL test medium,29 and 30 and 31
same,Partition coeff.,[2]; 13.5 h,19
same,Partition coeff.,[2]; 15.9 h,14
same,Partition coeff.,[2]; 18.3 h,19
same,Partition coeff.,[2]; 20.2 h,27
same,Partition coeff.,[2]; 23.3 h,33
same,Partition coeff.,[2]; 25.5 h,45
same,Partition coeff.,[2]; 27.3 h,40
same,Partition coeff.,[2]; 33.6 h,19
same,Partition coeff.,[2]; 36.8 h,19
same,Partition coeff.,[2]; 39.3 h,21
same,Partition coeff.,[2]; 57.1 h,17
same,Partition coeff.,[2]; 59.4 h,22
same,Partition coeff.,[2]; 63.8 h,27
same,Doubling Time,"[3]; pHS 1.0 g/L, pHS-adapted cells, LB medium, 30° C.",118 min
same,"Growth Rate, %",[3]; pHS 1.0 g/L,85%
same,Doubling Time,[3]; pHS 1.25 g/L,111 min
same,"Growth Rate, %",[3]; pHS 1.25 g/L,90%
